Tests used:
[1] = system: IL-2 induced STAT5 phosphorylation in T cells from JAK3 Cys905Ser knockin mice; experiment: IL-2 induced STAT5 phosphorylation in JAK3 Cys905Ser knockin T cells; format: cell-based, mouse; conditions: CD8 T cells, inhibitor 30 min, 10 ng/ml IL-2 30 min
Procedure: (§1) (A) Single cell suspensions were prepared from the spleens of wild type mice. […] Cells were then stimulated with 10 ng/ml IL-4 for 30 min and the levels of phosphorylated STAT6 determined by immunoblotting. (B) As (A) except cells were stimulated with 10 ng/ml IL-2 and the levels of phosphorylated STAT5 determined. (C) CD8 T cells were expanded from the lymph nodes of wild type and JAK3 Cys905Ser knockin mice. Cells were rested in the absence of IL-2 for 60 min then incubated with the indicated concentrations of PF-06651600 for a further 30 min before stimulation with 10 ng/ml of IL-2 for 30 min. The levels of phosphorylated STAT5 and total ERK1/2 were then determined.
(§2) Lymph Nodes were harvested from the mice and a single cell suspension in PBS made by passing the tissue through a […] strainer. The cells were counted and seeded at density of 10^6 cells/ml in RPMI supplemented with10% heat inactivated FBS (Labtech), 2 mM L-glutamine, 100 U/ml penicillin G, 100 μg/ml streptomycin, 0.25 μg/ml amphotericin and 50 μM β-mercaptoethanol and stimulated with 1 μg/ml anti-CD28 (cat:16-0281-82; clone:37.51 Thermo Fisher), 1 μg/ml anti CD3e (cat:16-0031-85, Clone:145-2C11 Thermo Fisher), 20 ng/ml of IL-2 and 1 ng/ml of IL-12. The cells were cultured for 36 h and then the cell suspension was diluted 5 times with RPMI media containing 20 ng/ml of IL-2. […]

[2] = system: IL-2 induced STAT5 phosphorylation in wild type CD8 T cells; experiment: IL-2 induced STAT5 phosphorylation in wild type T cells; format: cell-based, mouse; conditions: inhibitor 30 min, 10 ng/ml IL-2 30 min
Procedure: as §1, §2

JAK3 = conditions: ATP 4 μM; read-out: In vitro IC50 JAK3; cited from earlier work
JAK1 = conditions: ATP 40 μM; read-out: In vitro IC50 JAK1; cited from earlier work
JAK2 = conditions: ATP 4 μM; read-out: In vitro IC50 JAK2; cited from earlier work
[3] = system: GM-CSF induced STAT5 phosphorylation in BMDMs; design: method as in PMID 26258521; conditions: 5 μM; cited from earlier work
ABL = ABL (Homo sapiens, UniProt P00519); experiment: Selectivity screen ABL; format: biochemical; conditions: 1 µM inhibitor, mean
Procedure: (§3) For the in vitro kinase assay, JAK3 (5–20 mU diluted in 50 mM Tris pH 7.5, 0.1 mM EGTA, 0.05% β-mercaptoethanol, 1 mg/ml BSA) was assayed against PDKtide ([…]) in a final volume of 25.5 µl containing 50 mM Tris pH 7.5, 0.1 mM EGTA, 0.05% β-mercaptoethanol, 100 µM substrate peptide, 10 mM magnesium acetate and 0.02 mM [33P-γ-ATP] (50–1000 cpm/pmole) and incubated for 30 min at room temperature. Assays were started by the addition of the ATP and stopped by addition of 5 µl of 0.5 M (3%) orthophosphoric acid and then harvested onto P81 Unifilter plates with a wash buffer of 50 mM orthophosphoric acid. To determine the Km for ATP, assays were run using 1, 5, 10, 20, 50, 100, 200, 400, 500 μM ATP and Km derived by non-linear regression fitting to the Michaelis–Menten equation v = Vmax[S]/(Km + [S]). IC50 values for inhibitors via non-linear regression using a parameter model: Y = Bottom + (Top–Bottom)/(1 + (IC50/X)^HillSlope). Non-linear regression was carried out in Prism (version 8). In vitro selectivity screen was carried out as described previously.

PHK = experiment: Selectivity screen PHK; format: biochemical; conditions: 1 µM inhibitor, mean
Procedure: as §3

[4] = system: IFNβ induced STAT1 phosphorylation in BMDMs; design: method as in PMID 26258521; conditions: cited from earlier work
[5] = system: IL-10 induced STAT3 phosphorylation in BMDMs; design: method as in PMID 26258521; conditions: cited from earlier work
CHK2 = CHK2 (Homo sapiens, UniProt O96017); experiment: Selectivity screen CHK2; format: biochemical; conditions: 1 µM inhibitor, mean
Procedure: as §3

CK1δ = CK1δ (Homo sapiens, UniProt P48730); experiment: Selectivity screen CK1δ; format: biochemical; conditions: 1 µM inhibitor, mean
Procedure: as §3

Aurora B = Aurora B (Homo sapiens, UniProt Q96GD4); experiment: Selectivity screen Aurora B; format: biochemical; conditions: 1 µM inhibitor, mean
Src = Src (Homo sapiens, UniProt P12931); experiment: Selectivity screen Src; format: biochemical; conditions: 1 µM inhibitor, mean
Procedure: as §3

IRAK4 = IRAK4 (Homo sapiens, UniProt Q9NWZ3); experiment: Selectivity screen IRAK4; format: biochemical; conditions: 1 µM inhibitor, mean
Procedure: as §3

MELK = MELK (Homo sapiens, UniProt Q14680); experiment: Selectivity screen MELK; format: biochemical; conditions: 1 µM inhibitor, mean
Procedure: as §3

PKBa = PKBa (Homo sapiens, UniProt P31749); experiment: Selectivity screen PKBa; format: biochemical; conditions: 1 µM inhibitor, mean; read-out: activity remaining in the presence of the inhibitor: PKBa
Procedure: as §3

Chain of MELK (Q14680 whole entry): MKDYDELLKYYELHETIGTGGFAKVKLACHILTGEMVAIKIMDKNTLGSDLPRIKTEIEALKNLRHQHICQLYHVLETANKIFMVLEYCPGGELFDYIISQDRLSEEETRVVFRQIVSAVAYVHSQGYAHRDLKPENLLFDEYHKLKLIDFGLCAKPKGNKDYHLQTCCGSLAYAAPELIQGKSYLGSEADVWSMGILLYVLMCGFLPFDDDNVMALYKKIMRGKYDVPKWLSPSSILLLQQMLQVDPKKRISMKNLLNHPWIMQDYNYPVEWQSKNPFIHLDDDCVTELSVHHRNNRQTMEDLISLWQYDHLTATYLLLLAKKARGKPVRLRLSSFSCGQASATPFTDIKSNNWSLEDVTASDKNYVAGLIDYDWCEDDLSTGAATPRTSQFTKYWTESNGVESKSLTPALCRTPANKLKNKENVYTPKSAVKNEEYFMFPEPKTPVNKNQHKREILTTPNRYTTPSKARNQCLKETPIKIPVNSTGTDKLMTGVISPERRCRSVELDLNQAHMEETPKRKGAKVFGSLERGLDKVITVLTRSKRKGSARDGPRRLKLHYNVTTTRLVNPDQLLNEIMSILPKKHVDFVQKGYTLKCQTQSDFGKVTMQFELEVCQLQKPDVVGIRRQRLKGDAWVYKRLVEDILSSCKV
Chain of Src (P12931 whole entry): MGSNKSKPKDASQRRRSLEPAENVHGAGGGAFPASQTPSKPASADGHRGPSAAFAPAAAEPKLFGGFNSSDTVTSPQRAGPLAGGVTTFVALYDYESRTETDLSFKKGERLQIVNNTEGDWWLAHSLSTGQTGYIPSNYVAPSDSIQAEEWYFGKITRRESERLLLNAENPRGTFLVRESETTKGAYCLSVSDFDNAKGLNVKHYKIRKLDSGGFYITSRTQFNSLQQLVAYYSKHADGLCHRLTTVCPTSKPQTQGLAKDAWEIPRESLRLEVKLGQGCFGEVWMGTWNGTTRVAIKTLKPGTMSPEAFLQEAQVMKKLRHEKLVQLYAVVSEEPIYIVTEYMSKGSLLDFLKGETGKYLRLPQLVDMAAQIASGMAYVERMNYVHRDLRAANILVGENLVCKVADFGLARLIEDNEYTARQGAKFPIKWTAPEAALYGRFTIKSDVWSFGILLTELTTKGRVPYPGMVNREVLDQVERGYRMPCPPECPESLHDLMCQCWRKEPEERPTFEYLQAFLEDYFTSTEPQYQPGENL
Chain of IRAK4 (Q9NWZ3 whole entry): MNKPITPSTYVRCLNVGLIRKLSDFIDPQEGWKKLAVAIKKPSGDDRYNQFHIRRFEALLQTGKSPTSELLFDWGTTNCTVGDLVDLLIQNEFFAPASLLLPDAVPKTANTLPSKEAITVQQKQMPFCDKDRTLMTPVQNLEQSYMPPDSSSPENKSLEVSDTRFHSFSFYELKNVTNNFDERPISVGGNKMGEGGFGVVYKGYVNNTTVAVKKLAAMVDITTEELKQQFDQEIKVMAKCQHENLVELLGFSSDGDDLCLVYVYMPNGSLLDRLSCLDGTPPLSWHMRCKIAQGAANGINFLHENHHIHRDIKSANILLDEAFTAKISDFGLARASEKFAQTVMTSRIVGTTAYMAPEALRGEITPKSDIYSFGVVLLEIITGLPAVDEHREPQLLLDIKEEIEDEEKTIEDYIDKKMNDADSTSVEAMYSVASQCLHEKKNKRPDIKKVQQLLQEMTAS
Chain of Aurora B (Q96GD4 whole entry): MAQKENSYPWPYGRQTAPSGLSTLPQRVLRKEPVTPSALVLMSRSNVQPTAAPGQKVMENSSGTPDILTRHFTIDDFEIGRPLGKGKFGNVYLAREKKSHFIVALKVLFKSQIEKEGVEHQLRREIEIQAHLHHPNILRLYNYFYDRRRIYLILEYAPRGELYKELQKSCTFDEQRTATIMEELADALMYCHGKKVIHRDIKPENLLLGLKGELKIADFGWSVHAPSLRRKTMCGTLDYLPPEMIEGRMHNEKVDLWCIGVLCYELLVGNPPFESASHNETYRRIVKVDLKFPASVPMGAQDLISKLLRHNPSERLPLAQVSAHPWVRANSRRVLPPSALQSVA
Chain of CHK2 (O96017 whole entry): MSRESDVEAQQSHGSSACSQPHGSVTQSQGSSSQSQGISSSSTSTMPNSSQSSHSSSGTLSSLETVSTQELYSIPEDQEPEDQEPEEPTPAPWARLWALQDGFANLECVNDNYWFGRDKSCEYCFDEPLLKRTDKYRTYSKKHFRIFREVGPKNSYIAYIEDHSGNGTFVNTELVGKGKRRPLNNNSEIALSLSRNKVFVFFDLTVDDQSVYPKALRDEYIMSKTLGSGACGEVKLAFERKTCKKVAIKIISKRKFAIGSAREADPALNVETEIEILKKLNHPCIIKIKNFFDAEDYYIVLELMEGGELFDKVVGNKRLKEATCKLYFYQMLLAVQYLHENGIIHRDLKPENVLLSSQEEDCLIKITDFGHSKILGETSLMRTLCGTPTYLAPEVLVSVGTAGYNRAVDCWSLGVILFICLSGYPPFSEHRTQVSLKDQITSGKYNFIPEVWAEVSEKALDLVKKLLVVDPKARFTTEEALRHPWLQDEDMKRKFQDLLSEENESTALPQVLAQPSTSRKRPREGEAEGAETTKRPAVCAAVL
Chain of CK1δ (P48730 whole entry): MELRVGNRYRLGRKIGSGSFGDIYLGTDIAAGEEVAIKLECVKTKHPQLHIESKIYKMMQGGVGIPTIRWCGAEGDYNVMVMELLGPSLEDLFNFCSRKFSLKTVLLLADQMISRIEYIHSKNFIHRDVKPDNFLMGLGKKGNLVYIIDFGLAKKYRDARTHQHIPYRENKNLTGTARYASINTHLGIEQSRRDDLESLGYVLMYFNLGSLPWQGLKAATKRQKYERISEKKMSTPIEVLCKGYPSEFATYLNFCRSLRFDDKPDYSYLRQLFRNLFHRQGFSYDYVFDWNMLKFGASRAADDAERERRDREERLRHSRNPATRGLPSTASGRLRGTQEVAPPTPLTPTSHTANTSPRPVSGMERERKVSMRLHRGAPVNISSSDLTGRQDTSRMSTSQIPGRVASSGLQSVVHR
Chain of ABL (P00519 whole entry): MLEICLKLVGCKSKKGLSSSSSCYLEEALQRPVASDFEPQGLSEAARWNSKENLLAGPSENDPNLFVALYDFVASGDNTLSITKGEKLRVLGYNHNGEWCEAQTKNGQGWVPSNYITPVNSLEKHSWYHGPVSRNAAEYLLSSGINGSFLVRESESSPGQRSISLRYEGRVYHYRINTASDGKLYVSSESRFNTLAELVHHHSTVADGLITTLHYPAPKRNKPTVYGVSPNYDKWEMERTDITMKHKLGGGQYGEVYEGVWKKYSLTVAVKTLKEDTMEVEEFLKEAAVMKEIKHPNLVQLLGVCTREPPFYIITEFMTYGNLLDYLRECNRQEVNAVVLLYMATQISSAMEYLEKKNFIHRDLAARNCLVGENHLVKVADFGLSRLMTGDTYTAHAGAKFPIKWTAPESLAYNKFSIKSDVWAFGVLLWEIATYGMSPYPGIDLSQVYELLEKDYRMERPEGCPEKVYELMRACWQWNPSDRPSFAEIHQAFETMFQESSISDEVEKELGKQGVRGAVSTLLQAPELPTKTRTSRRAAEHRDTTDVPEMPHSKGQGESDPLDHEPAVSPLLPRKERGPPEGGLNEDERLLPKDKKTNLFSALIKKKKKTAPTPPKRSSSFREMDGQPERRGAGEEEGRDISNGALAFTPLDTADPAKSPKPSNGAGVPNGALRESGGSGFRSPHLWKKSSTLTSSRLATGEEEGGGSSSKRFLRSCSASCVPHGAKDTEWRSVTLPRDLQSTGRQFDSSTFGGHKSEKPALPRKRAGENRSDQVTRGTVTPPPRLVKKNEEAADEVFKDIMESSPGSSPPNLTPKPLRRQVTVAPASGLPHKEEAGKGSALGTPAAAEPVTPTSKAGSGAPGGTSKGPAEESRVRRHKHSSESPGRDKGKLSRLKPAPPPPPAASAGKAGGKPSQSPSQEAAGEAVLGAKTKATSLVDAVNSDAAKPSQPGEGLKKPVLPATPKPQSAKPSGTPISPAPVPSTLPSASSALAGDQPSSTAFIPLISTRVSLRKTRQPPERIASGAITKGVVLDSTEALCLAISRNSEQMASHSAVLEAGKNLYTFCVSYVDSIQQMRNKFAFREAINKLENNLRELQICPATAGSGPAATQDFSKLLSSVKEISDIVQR
Chain of PKBa (P31749 whole entry): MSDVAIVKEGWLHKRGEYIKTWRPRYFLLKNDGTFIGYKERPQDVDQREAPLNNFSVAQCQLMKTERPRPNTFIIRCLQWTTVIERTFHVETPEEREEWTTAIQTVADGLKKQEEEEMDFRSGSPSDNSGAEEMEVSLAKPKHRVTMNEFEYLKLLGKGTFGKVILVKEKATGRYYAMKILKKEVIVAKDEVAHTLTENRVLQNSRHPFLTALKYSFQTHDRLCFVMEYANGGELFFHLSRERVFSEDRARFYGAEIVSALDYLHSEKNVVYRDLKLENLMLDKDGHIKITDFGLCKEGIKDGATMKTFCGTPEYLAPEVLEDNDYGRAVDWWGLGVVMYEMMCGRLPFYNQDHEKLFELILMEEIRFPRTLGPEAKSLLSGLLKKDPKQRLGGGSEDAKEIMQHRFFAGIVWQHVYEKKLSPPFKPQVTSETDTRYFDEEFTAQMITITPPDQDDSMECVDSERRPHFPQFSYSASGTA

SMILES | block of IL-2 induced STAT5 phosphorylation in T cells from JAK3 Cys905Ser knockin mice [1] | block of IL-2 induced STAT5 phosphorylation in isolated wild type T cells [2] | IC50 (JAK3) [µM] | IC50 (JAK1) [µM] | IC50 (JAK2) [µM] | inhibition of GM-CSF signaling in macrophages [3] | activity remaining in the presence of the inhibitor: ABL (ABL) | activity remaining in the presence of the inhibitor: PHK (PHK) | inhibition of IFNβ signaling in macrophages ([4]; 5 μM) | block of STAT phosphorylation by IFNβ ([4]; 10 μM as printed in discussion) | inhibition of IL-10 signaling in macrophages ([5]; 5 μM) | block of STAT phosphorylation by IL-10 ([5]; 10 μM as printed in discussion) | activity remaining in the presence of the inhibitor: CHK2 (CHK2) | activity remaining in the presence of the inhibitor: CK1δ (CK1δ) | activity remaining in the presence of the inhibitor: Aurora B (Aurora B) | activity remaining in the presence of the inhibitor: Src (Src) | activity remaining in the presence of the inhibitor: IRAK4 (IRAK4) | activity remaining in the presence of the inhibitor: MELK (MELK) | remaining activity at 1 µM (PKBa) [%]
C=CC(=O)N1C[C@H](Nc2ncnc3[nH]ccc23)CC[C@@H]1C [PF-06651600, 1-((2S,5R)-5-((7H-Pyrrolo[2,3-d]pyrimidin-4-yl)amino)-2-methylpiperidin-1-yl)prop-2-en-1-one, reference compound] | did not block | able to block | […] | > 10 | > 10 | – | – | – | – | – | – | – | – | – | – | – | – | – | –
C=CC(=O)Nc1cccc(CNc2nc(Nc3ccc(N4CCN(C)CC4)cc3OC)ncc2Cl)c1 [TL6-144] | – | – | – | – | – | does not inhibit | 87 | 40 | does not inhibit | did not block | does not inhibit | did not block | 38 | 83 | 81 | 74 | 85 | 69 | –
C=CC(=O)Nc1cccc(CNc2nc(Nc3ccc(N4CCOCC4)cc3)ncc2Cl)c1 [TL8-52] | – | – | – | – | – | – | 89 | 78 | – | – | – | – | 75 | 110 | 13 | 53 | 77 | 66 | 100

From paper PMC8115619, “Generation of a chemical genetic model for JAK3” (Scientific Reports, 2021)
